Test [1] deals with D-form of SARS-CoV-2 HR1 (SARS CoV-2 D-HR1-biotin) (Severe acute respiratory syndrome coronavirus 2, UniProt P0DTC2). The test is classed as binding.
For test [2], the target named is L-form of SARS-CoV-2 HR1 (SARS CoV-2 HR1-biotin) (Severe acute respiratory syndrome coronavirus 2, UniProt P0DTC2). Nature of the test: biochemical. It counts as binding.
The subject of test [3] is SARS CoV-2 pseudotyped lentivirus. It counts as cell-based. Conditions: read-out: observed IC50, inhibition of pseudotyped virus infection.

Square brackets hold non-standard residues; d marks the D form.

As for “ATVKFTYQGEEKQVDISKIKYVLRIGQAIWFRYDEGGGAIGNGWVSEEDAPKELLQMLEKR [SEQ ID NO:51]”, the “affinity for SARS CoV-2 D-HR1-biotin compared with parental SEQ ID NO: 11” value in test [1] is “higher affinity”. The same measure, in the same setting: the same measure for “ATVKFTYQGEEKQVDISKIKYVLRIGQAIWFRYDEGGGAIGNGWVSEEDAPKELLQMLGKR [SEQ ID NO:53]”: “higher affinity”. Substance “[dA][dT][dV][dK][dF][dT][dY][dQ]G[dE][dE][dK][dQ][dV][dD][dI][dS][dK][dI][dK][dY][dV][dL][dR][dI]G[dQ][dA][dI][dW][dF][dR][dY][dD][dE]GGG[dA][dI]G[dN]G[dW][dV][dS][dE][dK][dD][dA][dP][dK][dE][dL][dL][dQ][dM][dL][dE][dK][dQ] [SEQ ID NO:12]” displayed a Kd in test [2] of 814 nM. Further, the IC50 in test [3] was 2200 nM.

The Kd is the free concentration of one partner at which half of the binding sites on the other are occupied at equilibrium, for simple one-to-one binding. As a reminder, the IC50 is the concentration at which inhibition is half-maximal.

(Values after patent US11834480B2 (priority 2020, dated 2023).)
